Data reported in US5610174A, “Use of α1A -selective adrenoceptor agonists for the treatment of urinary incontinence” (priority 1995, dated 1997).
Like-named read-outs stand apart in the source and are kept apart here.

Tests used:
human 5-HT7 receptor = target: T1, human 5-HT7 receptor (Homo sapiens, UniProt P34969); assay: Radioligand binding at human 5-HT7
T1 construct: expressed in transfected cells; host or cells: LM(tk-) clonal cell line, designated L-5-HT-4B, ATCC CRL 11166 (cell lysates)
Experimental: (§1) Human Serotonin Receptors
(§2) 5-HT1Dα, 5-HT1Dβ, 5-HT1E, 5-HT1F, and 5-HT7 Receptors: The cell lysates of LM(tk-) clonal cell line stably transfected with the genes encoding each of these 5-HT receptor-subtypes were prepared as described above. The cell line for the 5-HT1Dαreceptor, designated as Ltk-8-30-84, was deposited on Apr. […] The cell for the 5-HT1Dβ receptor, designated as Ltk-11, was deposited on Apr. […] The cell line for the 5-HT1E receptor, designated 5-HT1E -7, was deposited on Nov. […] The cell line for the 5-HT1F receptor, designated L-5-HT1F, was deposited on Dec. […] The cell line for the 5-HT7 receptor, designated as L-5-HT-4B, was deposited on Oct. […] These preparations were suspended in 50 mM Tris-HCl buffer (pH 7.4 at 37° C.) containing 10 mM MgCl2, 0.2 mM EDTA, 10 μM pargyline, and 0.1% ascorbate. […] Nonspecific binding was determined in the presence of 10 μM serotonin. The bound radioligand was separated by filtration through GF/B filters using a cell harvester.

human 5-HT1A receptor = target: T2, human 5-HT1A receptor (Homo sapiens, UniProt P08908); assay: Radioligand binding at human 5-HT1A
T2 construct: expressed in transfected cells; host or cells: COS-7, transient (a cell line 5-HT1A-3, ATCC CRL 11889, is also named)
T2 sequence (P08908 1-422): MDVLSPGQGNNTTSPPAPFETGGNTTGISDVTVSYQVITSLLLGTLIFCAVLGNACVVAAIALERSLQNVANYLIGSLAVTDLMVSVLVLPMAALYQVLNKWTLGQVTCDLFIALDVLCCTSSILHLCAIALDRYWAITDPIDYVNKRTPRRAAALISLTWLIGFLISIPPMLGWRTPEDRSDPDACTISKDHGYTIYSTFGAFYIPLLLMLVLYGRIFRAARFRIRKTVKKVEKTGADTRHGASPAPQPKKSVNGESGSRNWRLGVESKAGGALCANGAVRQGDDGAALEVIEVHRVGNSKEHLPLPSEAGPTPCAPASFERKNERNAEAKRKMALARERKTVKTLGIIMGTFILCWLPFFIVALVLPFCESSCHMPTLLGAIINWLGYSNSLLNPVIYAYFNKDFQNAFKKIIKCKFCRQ
Experimental: The cDNA corresponding to the 5-HT1A receptor open reading frames and variable non-coding 5'- and 3'-regions, was cloned into the eukaryotic expression vector pCEXV-3. These constructs were transfected transiently into COS-7 cells by the DEAE-dextran method, and harvested after 72 hours. Radioligand binding assays were performed as described above for the 5-HT2 receptor, except that [3H]-8-OH-DPAT was used as the radioligand and nonspecific binding was determined by the addition of 10 μM mianserin.

[1] = target: T3, human dopamine D2 receptor (Homo sapiens, UniProt P14416); assay: Radioligand binding at human dopamine D2; settings: [3H]spiperone; for Ki: read-out: pKi D2 (converted)
T3 construct: expressed in transfected cells; host or cells: COS-7 (plasmid pcEXV-D2, ATCC 75344)
T3 sequence (P14416 whole entry): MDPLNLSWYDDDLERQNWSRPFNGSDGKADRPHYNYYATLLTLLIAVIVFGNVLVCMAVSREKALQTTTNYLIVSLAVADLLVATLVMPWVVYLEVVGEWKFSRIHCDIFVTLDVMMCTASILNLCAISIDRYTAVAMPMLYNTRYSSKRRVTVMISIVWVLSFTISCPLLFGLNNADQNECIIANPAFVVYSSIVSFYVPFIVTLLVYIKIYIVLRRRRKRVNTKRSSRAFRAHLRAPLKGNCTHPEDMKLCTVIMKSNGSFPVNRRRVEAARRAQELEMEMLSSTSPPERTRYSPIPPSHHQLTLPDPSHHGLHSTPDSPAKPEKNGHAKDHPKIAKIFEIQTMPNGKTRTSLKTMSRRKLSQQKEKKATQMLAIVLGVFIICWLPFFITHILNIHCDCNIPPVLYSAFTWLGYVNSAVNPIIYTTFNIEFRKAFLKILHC
Experimental: Human Dopamine D2 Receptors
The affinity of compounds at the D2 receptor were determined using membrane preparations from COS-7 cells transfected with the gene encoding the human D2 receptor. The coding region for the human D2 receptor was obtained from a human striatum cDNA library, and cloned into the cloning site of PCDNA 1 eukariotic expression vector. The plasmid DNA for the D2 receptor is designated pcEXV-D2, and was deposited on Nov. 6, 1992 under ATCC Accession No. 75344. This construct was transfected into COS-7 cells by the DEAE-dextran method. Cells were harvested after 72 hours and lysed by sonication in 5mM Tris-HCl, 5 mM EDTA, pH 7.5. The cell lysates were centrifuged at 1000 rpm for 5 minutes at 4° C., and the supernatant was centrifuged at 30,000×g for 20 minutes at 4° C. The pellet was suspended in 50 mM Tris-HCl (pH 7.4) containing 1 mM EDTA, 5 mM KCl, 1.5 mM CaCl2, 4 mM MgCl2, and 0.1% ascorbic acid. The cell lysates were incubated with [3H]spiperone (2 nM), using 10 μM (+)Butaclamol to determine nonspecific binding.

human 5-HT1Dα receptor = target: T4, human 5-HT1Dα receptor (Homo sapiens, UniProt P28221); assay: Radioligand binding at human 5-HT1Dα
T4 construct: expressed in transfected cells; host or cells: LM(tk-) clonal cell line, designated Ltk-8-30-84, ATCC CRL 10421 (cell lysates)
T4 sequence (P28221 whole entry): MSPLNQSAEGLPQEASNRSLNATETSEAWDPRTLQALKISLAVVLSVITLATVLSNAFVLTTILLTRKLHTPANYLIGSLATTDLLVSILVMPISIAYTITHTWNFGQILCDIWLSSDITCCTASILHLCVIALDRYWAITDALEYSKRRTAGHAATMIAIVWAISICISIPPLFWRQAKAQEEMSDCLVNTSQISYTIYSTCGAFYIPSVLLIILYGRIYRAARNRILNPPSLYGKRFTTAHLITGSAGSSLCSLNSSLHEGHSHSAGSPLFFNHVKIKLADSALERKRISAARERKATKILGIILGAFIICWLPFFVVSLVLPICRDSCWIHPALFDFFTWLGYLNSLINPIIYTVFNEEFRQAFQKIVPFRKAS
Experimental: as §1, §2

T1 sequence (P34969 1-445 isoform P34969-2): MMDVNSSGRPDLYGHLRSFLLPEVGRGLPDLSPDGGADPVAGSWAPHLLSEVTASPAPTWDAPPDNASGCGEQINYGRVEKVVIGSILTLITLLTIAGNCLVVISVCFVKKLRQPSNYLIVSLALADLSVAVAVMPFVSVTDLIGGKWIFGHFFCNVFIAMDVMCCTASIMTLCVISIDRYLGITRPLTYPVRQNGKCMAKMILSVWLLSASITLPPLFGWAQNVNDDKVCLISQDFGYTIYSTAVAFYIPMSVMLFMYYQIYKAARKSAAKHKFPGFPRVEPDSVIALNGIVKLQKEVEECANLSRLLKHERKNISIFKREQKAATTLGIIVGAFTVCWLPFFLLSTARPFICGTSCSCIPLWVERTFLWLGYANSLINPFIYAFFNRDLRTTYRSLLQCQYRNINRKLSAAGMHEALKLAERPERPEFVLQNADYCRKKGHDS

| SMILES | Ki (human 5-HT7 receptor; [3H]serotonin, read-out: pKi 5-HT7 (converted)) [nM] | Ki (human 5-HT1A receptor; [3H]-8-OH-DPAT, read-out: pKi 5-HT1A (converted)) [nM] | Ki [1] [µM] | Ki (human 5-HT1Dα receptor; [3H]serotonin, read-out: pKi 5-HT1Dα (converted)) [nM] | Ki (human 5-HT7 receptor) [nM] | Ki (human 5-HT1A receptor) [nM] | Ki (human 5-HT1Dα receptor) [nM] | pKi 5-HT7 (human 5-HT7 receptor; [3H]serotonin) | pKi 5-HT1A (human 5-HT1A receptor; [3H]-8-OH-DPAT) | pKi D2 [1] | pKi 5-HT1Dα (human 5-HT1Dα receptor; [3H]serotonin) |
| --- | --- | --- | --- | --- | --- | --- | --- | --- | --- | --- | --- |
| CS(=O)(=O)Nc1c(O)ccc2c1CCCC2C1=NCCN1 (racemic) [Compound A-61603, (±)-N-[5-(4,5-Dihydro-1H-imidazol-2-yl)-2-hydroxy-5,6,7,8-tetra-hydronaphthalen-1-yl]methanesulfonamide] | 5010 | 3980 | 10 | 2510 | – | – | – | – | – | – | – |
| COc1ccc(SC)c2c1C[C@@H]1[C@@H](C2)OCCN1C (relative stereo) [SDZ NVI-085, (±)-trans-4-Methyl-6-methoxy-9-thiomethoxy-3,4,4a, 5,10,10a-hexahydro-2H-naphtho[2,3-b][1,4]oxazine] | – | – | 3.16 | – | 100 | 79.4 | 12.6 | – | – | – | – |
| CNCCc1ccc(O)c(NS(C)(=O)=O)c1 [SK&F 102652] | – | – | – | – | – | – | – | 5.3 | 5.8 | 6.7 | 5.9 |
